Results taken from US9233961B2, “Compounds and compositions for the treatment of parasitic diseases” (Novartis AG, priority 2013, dated 2016).
Like-named read-outs stand apart in the source and are kept apart here.

What was measured:
[1] = test system: L. donovani HU3 strain in mouse peritoneal macrophages; test: Assay for proliferation of Leishmania parasites in mouse peritoneal macrophages; type: cell-based, Leishmania donovani; conditions: Leishmania donovani, Peritoneal macrophage
Method in brief: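 BALB/c peritoneal macrophages infected 24 h with L. donovani HU3 amastigotes taken from spleens of mice infected 9–11 weeks, then treated with compound for 5 days at 37° C, 5% CO2. Parasite nuclei counted by SYBR Green imaging after fixation; EC50 from percentage inhibition.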

[2] = test system: Leishmania donovani axenic amastigote parasites; test: Leishmania donovani axenic amastigote proliferation assay; type: cell-based
Method in brief: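 L. donovani axenic amastigotes (9600/well) in RPMI 1640 with 20% heat-inactivated FBS, folic acid, adenosine, glucose and 25 mM MES, pH 5.5, were incubated with compounds for 2 days at 37 °C, 5% CO2. Viability read by CellTiter-Glo luminescence; EC50 calculated.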

[3] = read-out: L. donavani Macrophage EC50
[4] = axenic amastigotes in vitro, read-out: L. donovani amastigotes EC50
[5] = read-out: L. donavani Macrophage EC50 (μM)
[6] = 48 h, L. donovani axenic amastigotes, 2 day incubation, Cell TiterGlo luminescence, read-out: EC50

| Structure (SMILES) | EC50 [1, 3] [µM] | EC50 [2, 4] [nM] | EC50 [1, 5] [µM] | EC50 ([1]; 120 h, L. donovani in mouse peritoneal macrophages, 5 days culture, SybrGreen parasite nuclei count, read-out: EC50) [µM] | EC50 [2, 6] [nM] |
| --- | --- | --- | --- | --- | --- |
| COCCOc1ccc(-c2cnc3nc(-c4cc(NC(=O)N5CCCC5)ccc4Cl)[nH]c3c2)cc1 [Compound 303] | 0.4 | 146 |  |  |  |
| CN(C)c1ccc(-c2cnc3nc(-c4cc(NC(=O)c5ccco5)ccc4Cl)[nH]c3c2)cc1 [Compound 67] | 2.5 | 2120 |  |  |  |
| CN(C)c1ccc(-c2cnc3nc(-c4cc(NC(=O)Nc5ccc(C(F)(F)F)cc5)ccc4F)oc3c2)cn1 [Compound 403] | > 50 | 17400 |  |  |  |
| O=C(Nc1ccc(C(F)(F)F)cc1)Nc1ccc(F)c(-c2nc3ncc(-c4ccc(N5CCOCC5)cc4)cc3o2)c1 [Compound 392] | 8.4 | > 25000 |  |  |  |
| CC(C)OC(=O)Nc1ccc(-c2cnc3nc(-c4cc(NC(=O)Nc5ccc(C(F)(F)F)cc5)ccc4F)oc3c2)cc1 [Compound 396] | > 50 | 16100 |  |  |  |
| COC(=O)Nc1ccc(-c2cnc3nc(-c4cc(NC(=O)c5ccco5)ccc4F)oc3c2)cc1 [Compound 414] |  | 200 | 1.17 |  |  |
| O=C(Nc1ccc(Cl)c(-c2nc3ncc(Br)cc3[nH]2)c1)c1cocn1 [Compound 369] | > 50 | > 25000 |  |  |  |
| CCCc1cnc2nc(-c3cc(NC(=O)c4ccco4)ccc3Cl)[nH]c2c1 [Example 75, N-(4-chloro-3-{6-propyl-1H-imidazo[4,5-b]pyridin-2-yl}phenyl)furan-2-carboxamide] | 25.6 | 9300 |  |  |  |
| O=C(Nc1ccc(Cl)c(-c2nc3ncc(-c4ccc(CN5CCOCC5)cc4)cc3[nH]2)c1)c1ccco1 [Compound 16] | 1.63 | 2070 |  |  |  |
| CC(C)OC(=O)Nc1ccc(Cl)c(-c2nc3ncc(-c4ccccc4NC(=O)CCN)cc3[nH]2)c1 [Compound 342] | 39.1 | > 25000 |  |  |  |
| O=C(Nc1ccc(-c2cnc3nc(-c4cc(NC(=O)c5ccco5)ccc4Cl)[nH]c3c2)cc1)NC1CC1 [Compound 45] | 3.4 | 1470 |  |  |  |
| Cc1cnc2nc(-c3cc(NC(=O)[C@@H]4CCCN4)ccc3F)[nH]c2c1 [Compound 273] | > 50 | > 25000 |  |  |  |
| CC(C)OC(=O)Nc1ccc(Cl)c(-c2nc3ncc(C#N)cc3[nH]2)c1 [Example 287, Propan-2-yl N-(4-chloro-3-{6-cyano-1H-imidazo[4,5-b]pyridin-2-yl}phenyl)carbamate] | 0.078 | 1440 |  | ~0.08 |  |
| CC(C)OC(=O)Nc1ccc(Cl)c(-c2nc3ncc(-c4ccc(NC(=O)CCN)cc4)cc3[nH]2)c1 [Compound 339] | 1.82 | 3700 |  |  |  |
| Cc1cnc2nc(-c3cc(NC(=O)c4ccnc(C)c4)ccc3Cl)[nH]c2c1 [Compound 188] | 11.6 | 2260 |  |  |  |
| CCc1cnc2nc(-c3cc(NC(=O)c4ccco4)ccc3Cl)oc2c1 [Example 419, N-(4-chloro-3-{6-ethyl-[1,3]oxazolo[4,5-b]pyridin-2-yl}phenyl)-furan-2-carboxamide] |  | 360 | 2.46 |  |  |
| Cc1cnc2nc(-c3cc(NC(=O)c4cc5ccccn5n4)ccc3F)[nH]c2c1 [Compound 274] | 26.7 | 17000 |  |  |  |
| O=C(Nc1ccc(C(F)(F)F)cc1)Nc1ccc(F)c(-c2nc3ncc(Cl)cc3[nH]2)c1 [Compound 356] | 19.6 | > 25000 |  |  |  |
| O=C(Nc1ccc(Cl)c(-c2nc3ncc(C(F)(F)F)cc3[nH]2)c1)c1ccco1 [Example 276, N-{4-Chloro-3-[6-(trifluoromethyl)-1H-imidazo[4,5-b]pyridin-2-yl]phenyl}furan-2-carboxamide] | 6 | 1560 |  |  |  |
| Cc1cnc2nc(-c3cc(NC(=O)C(O)c4ccc(C(F)(F)F)cc4)ccc3Cl)[nH]c2c1 (stereo not drawn) [Compound 182] | > 50 | > 25000 |  |  |  |
| Cc1cnc2nc(-c3cc(NC(=O)c4ccc(OC(F)(F)F)cc4)ccc3Cl)[nH]c2c1 [Compound 210] | > 37.7 | > 22000 |  |  |  |
| O=C(Nc1ccc(Cl)c(-c2nc3ncc(C(F)(F)F)cc3[nH]2)c1)c1ccc(F)o1 [Compound 284] | 4.1 | 700 |  |  |  |
| O=C(Nc1ccc(Cl)c(-c2nc3ncc(-c4cnn(CCN5CCOCC5)c4)cc3[nH]2)c1)c1ccco1 [Compound 14] | 3.14 | 3700 |  |  |  |

| Structure (SMILES) | EC50 [1, 3] [µM] | EC50 [2, 4] [nM] | EC50 [1, 5] [µM] | EC50 ([1]; 120 h, L. donovani in mouse peritoneal macrophages, 5 days culture, SybrGreen parasite nuclei count, read-out: EC50) [µM] | EC50 [2, 6] [nM] |
| --- | --- | --- | --- | --- | --- |
| O=C(Nc1ccc(F)c(-c2nc3ncc(-c4ccc(OCC5CO5)cc4)cc3[nH]2)c1)N1CCCC1 (stereo not drawn) [Compound 310] | 4.6 | 1950 |  |  |  |
| O=C(Nc1ccc(Cl)c(-c2nc3ncc(-c4cccc(OCCN5CCOCC5)c4)cc3[nH]2)c1)N1CCCC1 [Compound 301] | 1.05 | 910 |  |  |  |
| O=C(Nc1ccc(F)c(-c2nc3ncc(Br)cc3[nH]2)c1)c1cc[nH]n1 [Compound 368] | > 50 | 18900 |  |  |  |
| O=C(Nc1ccc(Cl)c(-c2nc3ncc(Cl)cc3[nH]2)c1)c1ccco1 [Compound 2] | 4 | 1390 |  |  |  |
| O=C(Nc1ccc(F)c(-c2nc3ncc(-c4ccc(OCCN5CCOCC5)cc4)cc3[nH]2)c1)N1CCCC1 [Compound 295] | 1.27 | 2860 |  |  |  |
| CN(C)C(=O)Nc1ccc(F)c(-c2nc3ncc(Cl)cc3[nH]2)c1 [Compound 354] | > 50 | > 25000 |  |  |  |
| O=C(Nc1ccc(F)c(-c2nc3ncc(Cl)cc3[nH]2)c1)c1ccco1 [Example 357, N-(3-{6-chloro-1H-imidazo[4,5-b]pyridin-2-yl}-4-fluorophenyl)furan-2-carboxamide] | 2.51 | 600 |  |  |  |
| O=C(Nc1ccc(Cl)c(-c2nc3ncc(-c4ccc(OCCn5ccnc5)cc4)cc3[nH]2)c1)c1ccco1 [Compound 71] | 1.86 | 4000 |  |  |  |
| CNc1ccc(-c2cnc3nc(-c4cc(NC(=O)N5CCCC5)ccc4Cl)[nH]c3c2)cc1 [Compound 292, N-(4-chloro-3-{6-[4-(methylamino)phenyl]-1H-imidazo[4,5-b]pyridin-2-yl}phenyl)pyrrolidine-1-carboxamide] | 0.17 | 80 |  |  | ~80 |
| O=C(Nc1ccc(Cl)c(-c2nc3ncc(-c4ccc(N5CCNCC5)cc4)cc3[nH]2)c1)N1CCCC1 [Compound 294] | 16.9 | > 25000 |  |  |  |
| CNC(=O)c1ccc(-c2cnc3nc(-c4cc(NC(=O)c5ccco5)ccc4Cl)[nH]c3c2)cn1 [Compound 54] | 0.272 | 226 |  |  |  |
| CC(C)CC(=O)Nc1ccc(-c2cnc3nc(-c4cc(NC(=O)c5ccco5)ccc4Cl)[nH]c3c2)cc1 [Compound 13, N-(4-chloro-3-{6-[4-(3-methylbutanamido)phenyl]-1H-imidazo[4,5-b]pyridin-2-yl}phenyl)furan-2-carboxamide] | 0.115 | 83 |  |  | ~80 |
| COCCOc1ccc(-c2cnc3nc(-c4cc(NC(=O)N5CCCC5)ccc4F)[nH]c3c2)cc1 [Compound 312] | 3.7 | 1750 |  |  |  |
| Cc1cnc2nc(-c3cc(NC(=O)c4ccco4)ccc3Cl)oc2c1 [Example 418, N-(4-chloro-3-{6-methyl-[1,3]oxazolo[4,5-b]pyridin-2-yl}phenyl)-furan-2-carboxamide] |  | 1510 | 8.4 |  |  |
| CC(C)C(=O)Nc1ccc(-c2cnc3nc(-c4cc(NC(=O)c5ccco5)ccc4Cl)[nH]c3c2)cc1 [Compound 53] | 0.154 | 112 |  |  |  |
| Cc1ccc(C(=O)Nc2ccc(F)c(-c3nc4ncc(-c5ccccc5)cc4[nH]3)c2)o1 [Example 380, N-(4-fluoro-3-{6-phenyl-1H-imidazo[4,5-b]pyridin-2-yl}phenyl)-5-methylfuran-2-carboxamide] | 3.3 | 5700 |  |  |  |
| O=C(Nc1ccc(Cl)c(-c2nc3ncc(C(F)(F)F)cc3[nH]2)c1)c1ccccc1Cl [Compound 278] | 3.8 | > 25000 |  |  |  |
| CCc1nnc(C(=O)Nc2ccc(F)c(-c3nc4ncc(Br)cc4o3)c2)o1 [Example 404, N-(3-{6-bromo-[1,3]oxazolo[4,5-b]pyridin-2-yl}-4-fluorophenyl)-5-ethyl-1,3,4-oxadiazole-2-carboxamide] | > 50 | > 25000 |  |  |  |
| O=C(Nc1ccc(F)c(-c2nc3ncc(-c4cnn(C5CCNCC5)c4)cc3[nH]2)c1)N1CCCC1 [Compound 298] | > 50 | > 25000 |  |  |  |
| O=C(Nc1ccc(F)c(-c2nc3ncc(-c4ccccc4)cc3[nH]2)c1)N1CCCC1 [Example 309, N-(4-fluoro-3-{6-phenyl-1H-imidazo[4,5-b]pyridin-2-yl}phenyl)pyrrolidine-1-carboxamide] | 4.5 | 1970 |  |  |  |
| O=C(Nc1ccc(Cl)c(-c2nc3ncc(-c4ccc(F)cc4)cc3[nH]2)c1)N1CCCC1 [Compound 293] | 2.47 | 380 |  |  |  |
| O=C(Nc1ccc(Cl)c(-c2nc3ncc(-c4ccc(-n5cccn5)cc4)cc3[nH]2)c1)c1ccco1 [Compound 56] | 16 | 3200 |  |  |  |
